In PubChem BioAssay (NCI):
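Cultured in 96-well plates, cells were exposed to test compound for 48 hours across five concentrations. The concentration for 50% growth inhibition is given as GI50. At the TGI there is no net growth.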

Assays:
Test in all cases: NCI tumour cell line growth inhibition, 48 h
U251 CNS = tested on: U251 CNS
786-0 renal = tested on: 786-0 renal
EKVX NSCLC = tested on: EKVX NSCLC
ACHN renal = tested on: ACHN renal
OVCAR-4 ovarian = tested on: OVCAR-4 ovarian
HCT-116 colon = tested on: HCT-116 colon
HCC-2998 colon = tested on: HCC-2998 colon
MCF7 breast = tested on: MCF7 breast
SK-MEL-28 melanoma = tested on: SK-MEL-28 melanoma
HOP-62 NSCLC = tested on: HOP-62 NSCLC
HCT-15 colon = tested on: HCT-15 colon
HS 578T breast = tested on: HS 578T breast
PC-3 prostate = tested on: PC-3 prostate
OVCAR-5 ovarian = tested on: OVCAR-5 ovarian
SK-OV-3 ovarian = tested on: SK-OV-3 ovarian
NCI-H226 lung = tested on: NCI-H226 lung
BT-549 breast = tested on: BT-549 breast
UO-31 renal = tested on: UO-31 renal
M14 melanoma = tested on: M14 melanoma
SF-268 CNS = tested on: SF-268 CNS
SW-620 colon = tested on: SW-620 colon
NCI-H522 lung = tested on: NCI-H522 lung
UACC-62 melanoma = tested on: UACC-62 melanoma
MDA-MB-231 breast = tested on: MDA-MB-231 breast
NCI-H460 lung = tested on: NCI-H460 lung
SN12C renal = tested on: SN12C renal
SK-MEL-2 melanoma = tested on: SK-MEL-2 melanoma
SK-MEL-5 melanoma = tested on: SK-MEL-5 melanoma
RPMI-8226 leukemia = tested on: RPMI-8226 leukemia
IGROV1 ovarian = tested on: IGROV1 ovarian
HT29 colon = tested on: HT29 colon
UACC-257 melanoma = tested on: UACC-257 melanoma
A549 NSCLC = tested on: A549 NSCLC
TK-10 renal = tested on: TK-10 renal
LOX IMVI melanoma = tested on: LOX IMVI melanoma
SR leukemia = tested on: SR leukemia
OVCAR-8 ovarian = tested on: OVCAR-8 ovarian
NCI/ADR-RES ovarian = tested on: NCI/ADR-RES ovarian
CCRF-CEM leukemia = tested on: CCRF-CEM leukemia
COLO 205 colon = tested on: COLO 205 colon
MDA-MB-435 = tested on: MDA-MB-435
SNB-19 CNS = tested on: SNB-19 CNS
NCI-H23 lung = tested on: NCI-H23 lung
OVCAR-3 ovarian = tested on: OVCAR-3 ovarian
DU-145 prostate = tested on: DU-145 prostate
MOLT-4 leukemia = tested on: MOLT-4 leukemia
HL-60(TB) leukemia = tested on: HL-60(TB) leukemia
SNB-75 CNS = tested on: SNB-75 CNS
KM12 colon = tested on: KM12 colon
SF-539 CNS = tested on: SF-539 CNS
HOP-92 NSCLC = tested on: HOP-92 NSCLC
K-562 leukemia = tested on: K-562 leukemia
RXF 393 renal = tested on: RXF 393 renal
CAKI-1 renal = tested on: CAKI-1 renal
SF-295 CNS = tested on: SF-295 CNS
T-47D breast = tested on: T-47D breast
MALME-3M melanoma = tested on: MALME-3M melanoma

## CN(C)C1CCN(C(=O)c2ccc(NC(=O)Nc3ccc(-c4nc(N5CCOCC5)c5cccn5n4)cc3)cc2)CC1
U251 CNS
  GI50: 59.9 nM
  TGI: 14400 nM
786-0 renal
  GI50: 310 nM
  TGI: 6360 nM
EKVX NSCLC
  GI50: 70.2 nM
  TGI: 3460 nM
ACHN renal
  GI50: 1050 nM
  TGI: 13000 nM
OVCAR-4 ovarian
  GI50: 13.7 nM
  TGI: 72.1 nM
HCT-116 colon
  GI50: 70.5 nM
  TGI: 20000 nM
HCC-2998 colon
  GI50: 43 nM
  TGI: 5860 nM
MCF7 breast
  TGI: 1510 nM
SK-MEL-28 melanoma
  GI50: 72.4 nM
  TGI: 849 nM
HOP-62 NSCLC
  GI50: 57.3 nM
  TGI: 2820 nM
HCT-15 colon
  GI50: 2770 nM
  TGI: > 50700 nM
HS 578T breast
  GI50: 19.2 nM
  TGI: 92.6 nM
PC-3 prostate
  GI50: 39.7 nM
  TGI: 2100 nM
OVCAR-5 ovarian
  GI50: 52.1 nM
  TGI: 16100 nM
SK-OV-3 ovarian
  GI50: 37.7 nM
  TGI: 252 nM
NCI-H226 lung
  GI50: 43.5 nM
  TGI: 2990 nM
BT-549 breast
  GI50: 177 nM
  TGI: 2250 nM
UO-31 renal
  GI50: 1150 nM
  TGI: 10100 nM
M14 melanoma
  GI50: 281 nM
  TGI: 9150 nM
SF-268 CNS
  GI50: 45.3 nM
  TGI: 13900 nM
SW-620 colon
  GI50: 128 nM
  TGI: 11800 nM
NCI-H522 lung
  GI50: 37.7 nM
  TGI: 19100 nM
UACC-62 melanoma
  GI50: 44.4 nM
  TGI: 287 nM
MDA-MB-231 breast
  GI50: 49.1 nM
  TGI: 11100 nM
NCI-H460 lung
  GI50: 58.7 nM
  TGI: 13600 nM
SN12C renal
  GI50: 36.5 nM
  TGI: 14700 nM
SK-MEL-2 melanoma
  GI50: 83.3 nM
  TGI: 1430 nM
SK-MEL-5 melanoma
  GI50: 153 nM
  TGI: 662 nM
RPMI-8226 leukemia
  GI50: 275 nM
  TGI: 1880 nM
IGROV1 ovarian
  GI50: 30.2 nM
  TGI: 211 nM
HT29 colon
  GI50: 55.8 nM
  TGI: 3780 nM
UACC-257 melanoma
  GI50: 204 nM
  TGI: 729 nM
A549 NSCLC
  GI50: 64.9 nM
  TGI: 12600 nM
TK-10 renal
  GI50: 393 nM
  TGI: 3840 nM
LOX IMVI melanoma
  GI50: 26.7 nM
  TGI: 1190 nM
SR leukemia
  GI50: 56.2 nM
  TGI: > 54000 nM
OVCAR-8 ovarian
  GI50: 116 nM
  TGI: 15500 nM
NCI/ADR-RES ovarian
  GI50: 59500 nM
  TGI: > 100000 nM
CCRF-CEM leukemia
  GI50: 48.3 nM
  TGI: 4690 nM
COLO 205 colon
  GI50: 53.5 nM
  TGI: 1420 nM
MDA-MB-435
  GI50: 40.3 nM
  TGI: 492 nM
SNB-19 CNS
  GI50: 40.3 nM
  TGI: 6220 nM
NCI-H23 lung
  GI50: 102 nM
  TGI: 17700 nM
OVCAR-3 ovarian
  GI50: 41.2 nM
  TGI: 1120 nM
DU-145 prostate
  GI50: 33.5 nM
  TGI: 12600 nM
MOLT-4 leukemia
  GI50: 45.7 nM
  TGI: 2520 nM
HL-60(TB) leukemia
  GI50: 105 nM
  TGI: 1760 nM
SNB-75 CNS
  GI50: 13.8 nM
  TGI: 71.1 nM
KM12 colon
  GI50: 155 nM
  TGI: 7690 nM
SF-539 CNS
  GI50: 45.3 nM
  TGI: 406 nM
HOP-92 NSCLC
  GI50: < 15 nM
  TGI: 102 nM
K-562 leukemia
  GI50: 224 nM
  TGI: 9660 nM
RXF 393 renal
  GI50: 88 nM
  TGI: 604 nM
CAKI-1 renal
  GI50: 3390 nM
  TGI: 20800 nM
SF-295 CNS
  GI50: 71.9 nM
  TGI: 512 nM
T-47D breast
  GI50: 13.4 nM
  TGI: 66.4 nM

## Nc1ncc(-c2ccc3ncnc(Nc4ccc(F)c(Cl)c4)c3c2)cn1
U251 CNS
  GI50: 1720 nM
  TGI: 4240 nM
EKVX NSCLC
  GI50: 252 nM
  TGI: 38000 nM
ACHN renal
  GI50: 387 nM
  TGI: 2050 nM
OVCAR-4 ovarian
  GI50: 1320 nM
  TGI: 2970 nM
HCT-116 colon
  GI50: 1890 nM
  TGI: 3730 nM
HCC-2998 colon
  GI50: 22200 nM
  TGI: > 100000 nM
MCF7 breast
  GI50: 1490 nM
  TGI: 20500 nM
SK-MEL-28 melanoma
  GI50: 3080 nM
  TGI: 17600 nM
HOP-62 NSCLC
  GI50: 1700 nM
  TGI: 4450 nM
HCT-15 colon
  GI50: 2540 nM
  TGI: > 100000 nM
HS 578T breast
  GI50: 1190 nM
  TGI: 3520 nM
PC-3 prostate
  GI50: 2480 nM
  TGI: 53600 nM
OVCAR-5 ovarian
  GI50: 1020 nM
  TGI: 3690 nM
SK-OV-3 ovarian
  GI50: 634 nM
  TGI: 3960 nM
NCI-H226 lung
  GI50: 2070 nM
  TGI: 4670 nM
BT-549 breast
  GI50: 1880 nM
  TGI: 8270 nM
UO-31 renal
  GI50: 500 nM
  TGI: 3020 nM
M14 melanoma
  GI50: 3740 nM
  TGI: 17100 nM
SF-268 CNS
  GI50: 2480 nM
  TGI: 68500 nM
SW-620 colon
  GI50: 3020 nM
  TGI: 11700 nM
MALME-3M melanoma
  GI50: 1290 nM
  TGI: 4470 nM
NCI-H522 lung
  GI50: 1700 nM
  TGI: 8920 nM
UACC-62 melanoma
  GI50: 4990 nM
  TGI: 39900 nM
MDA-MB-231 breast
  GI50: 1440 nM
  TGI: 3800 nM
NCI-H460 lung
  GI50: 1440 nM
  TGI: 2960 nM
SN12C renal
  GI50: 1580 nM
  TGI: 4100 nM
SK-MEL-2 melanoma
  GI50: 18200 nM
  TGI: 39900 nM
SK-MEL-5 melanoma
  GI50: 2840 nM
  TGI: 9690 nM
RPMI-8226 leukemia
  GI50: 2150 nM
  TGI: 7510 nM
IGROV1 ovarian
  GI50: 258 nM
  TGI: 2430 nM
HT29 colon
  GI50: 2310 nM
  TGI: 19300 nM
UACC-257 melanoma
  GI50: 13400 nM
  TGI: 31700 nM
A549 NSCLC
  GI50: 1950 nM
  TGI: 8250 nM
TK-10 renal
  GI50: 132 nM
  TGI: 1420 nM
LOX IMVI melanoma
  GI50: 2350 nM
  TGI: 10700 nM
OVCAR-8 ovarian
  GI50: 2960 nM
  TGI: 17500 nM
NCI/ADR-RES ovarian
  GI50: 3800 nM
  TGI: 46200 nM
CCRF-CEM leukemia
  GI50: 2860 nM
  TGI: > 100000 nM
COLO 205 colon
  GI50: 2500 nM
  TGI: 11200 nM
MDA-MB-435
  GI50: 2310 nM
  TGI: 13400 nM
SNB-19 CNS
  GI50: 3530 nM
  TGI: 23500 nM
NCI-H23 lung
  GI50: 2810 nM
  TGI: 39300 nM
OVCAR-3 ovarian
  GI50: 1200 nM
  TGI: 2570 nM
DU-145 prostate
  GI50: 759 nM
  TGI: > 100000 nM
MOLT-4 leukemia
  GI50: 2240 nM
  TGI: 9330 nM
HL-60(TB) leukemia
  GI50: 10600 nM
  TGI: 29700 nM
SNB-75 CNS
  GI50: 544 nM
  TGI: 2430 nM
KM12 colon
  GI50: 5010 nM
  TGI: > 100000 nM
SF-539 CNS
  GI50: 1520 nM
  TGI: 2930 nM
HOP-92 NSCLC
  GI50: 1030 nM
  TGI: 3520 nM
K-562 leukemia
  GI50: 3250 nM
  TGI: > 100000 nM
RXF 393 renal
  GI50: 932 nM
  TGI: 3500 nM
CAKI-1 renal
  GI50: 367 nM
  TGI: 4020 nM
SF-295 CNS
  GI50: 2110 nM
  TGI: 11000 nM
T-47D breast
  GI50: 703 nM
  TGI: 3160 nM
